This note sets out measurements from patent publication US7745459B2, “Quinolizinone compound and use thereof as HIV integrase inhibitor” (Japan Tobacco Inc., priority 2004, dated 2010).

SMILES strings stand for the structures.

The target in the assay is T1, HIV integrase (Human immunodeficiency virus type 1 group M subtype B, UniProt P12497, F1332H).
T1 construct: HIV integrase full length gene; made in house; host or cells: Escherichia coli BL21 (DE3)
Description: Determination of enzyme (HIV integrase) inhibitory activity. It counts as biochemical. Particulars: recombinant integrase protein (phenylalanine at codon 185 substituted by histidine); donor/target DNA, absorbance at 450 nm; read-out: Anti-integrase activity (IC50 value). From the text: The following explains evaluation methods of the HIV integrase inhibitory activity of the compound of the present invention.
HIV integrase full length gene (J. Virol., 67, 425-437 (1993)) in which phenylalanine at codon 185 was substituted by histidine, was inserted between the restriction enzyme NdeI and XhoI sites of plasmid pET21a(+) (Novagen), whereby an integrase expression vector pET21a-INH was constructed.
Escherichia coli recombinant BL21 (DE3) transformed with plasmid pET21a-INH obtained in (i) was shake cultured at 37° C. in a liquid medium containing ampicillin. When the culture reached the logarithmic growth phase, isopropyl-β-D-thiogalactopyranoside was added to promote expression of integrase gene. The culture was continued for 3 hr to promote accumulation of the integrase protein. The recombinant E. coli was collected in pellets by centrifugal separation and preserved at −80° C.
The E. coli was suspended in Lysis buffer (20 mM HEPES (pH 7.5), 5 mM DTT, 10 mM CHAPS, 10% glycerol) containing 1 M sodium chloride and subjected to repeat pressurization and depressurization for rupture, and centrifugal separation at 4° C., 40,000×g, 60 min to recover a water-soluble fraction (supernatant). This was diluted 10-fold with Lysis buffer free of sodium chloride, mixed with SP-Sepharose (Pharmacia Corporation) and stirred at 4° C. for 60 min to allow adsorption of integrase protein to the resin. The resin was washed with Lysis buffer containing 100 mM sodium chloride and the integrase protein was eluted with Lysis buffer containing 1 M sodium chloride.
The eluted integrase protein solution was subjected to a Superdex 75 (Pharmacia Corporation) column for gel filtration. The protein was eluted with Lysis buffer containing 1 M sodium chloride.
The obtained fractions of the integrase protein were collected and preserved at −80° C.
The following DNA synthesized by Greiner was dissolved in TE buffer (10 mM Tris-hydrochloric acid (pH 8.0), 1 mM EDTA) and mixed with donor DNA, target DNA, and each complementary strand (+ and − strands) to 1 μM. The mixture was heated at 95° C. for 5 min, 80° C. for 10 min, 70° C. for 10 min, 60° C. for 10 min, 50° C. for 10 min and 40° C. for 10 min and kept at 25° C. to give a double stranded DNA, which was used for the test.
The donor DNA was diluted with TE buffer to 10 nM, of which 50 μl was added to each well of streptavidin-coated microtiter plate (Roche) and allowed to adsorb at 37° C. for 60 min. The plate was washed with phosphate buffer (Dulbecco's PBS, Sanko Junyaku Co., Ltd.) containing 0.1% Tween 20 and phosphate buffer. Then, a reaction mixture (70 μl) having the following composition, a test substance (10 μl) diluted with the reaction mixture and 100 μg/ml integrase protein (10 μl) were added to each well and reacted at 37° C. for 60 min. Composition of the reaction mixture: 30 mM MOPS (3-morpholinopropanesulfonic acid), 5 mM magnesium chloride, 3 mM DTT (dithiothreitol), 0.1 mg/ml BSA (bovine serum albumin), 5% glycerol, 10% DMSO (dimethyl sulfoxide), 0.01% Tween 20.
Then, 50 nM target DNA (10 μl) was added, and the mixture was reacted at 37° C. for 10 min and washed with phosphate buffer containing 0.1% Tween 20 to stop the reaction.
Then, 100 mU/ml peroxidase labeled anti-digoxigenin antibody solution (Roche, 100 μl) was added, and the mixture was reacted at 37° C. for 60 min, followed by washing with phosphate buffer containing 0.1% Tween 20.
A peroxidase color solution (Bio Rad, 100 μl) was added and allowed to react at room temperature for 4 min. The color reaction was stopped by adding 1N sulfuric acid (100 μl). The absorbance at 450 nm was measured. […]
As to `CO[C@H](C)C(=O)NCc1cc(C(=O)O)c(=O)n2cc(Cc3cccc(Cl)c3F)ccc12` [Example 53, 7-(3-chloro-2-fluorobenzyl)-1-[((R)-2-methoxypropionylamino)methyl]-4-oxo-4H-quinolizine-3-carboxylic acid], the half-maximal inhibitory concentration (IC50) (in general, the concentration needed to halve the response being measured) lay in the range of 10 to 100 nM. For the compound `O=C(O)c1ccc2ccc(Cc3ccccc3)cn2c1=O` [Example 11, 7-benzyl-4-oxo-4H-quinolizine-3-carboxylic acid], the IC50 is 1000 to 10000 nM.

For `O=C(CO)NCc1cc(C(=O)O)c(=O)n2cc(Cc3cccc(Cl)c3F)ccc12` [Example 39, 7-(3-chloro-2-fluorobenzyl)-1-[(2-hydroxyacetylamino)methyl]-4-oxo-4H-quinolizine-3-carboxylic acid], the IC50 lay in the range of 10 to 100 nM.

Take `CCOCC(=O)NCc1cc(C(=O)O)c(=O)n2cc(Cc3cccc(Cl)c3F)ccc12` [Example 55, 7-(3-chloro-2-fluorobenzyl)-1-[(2-ethoxyacetylamino)methyl]-4-oxo-4H-quinolizine-3-carboxylic acid]: the IC50 lay within 10 to 100 nM. Consider `CCCc1cc(C(=O)O)c(=O)n2cc(Cc3cccc(Cl)c3F)ccc12` [Example 12, 7-(3-chloro-2-fluorobenzyl)-4-oxo-1-propyl-4H-quinolizine-3-carboxylic acid], for which the IC50 lay in the range of 10 to 100 nM. As for `CC(=O)NCC(=O)NCc1cc(C(=O)O)c(=O)n2cc(Cc3cccc(Cl)c3F)ccc12` [Example 57, 1-[(2-acetylaminoacetylamino)methyl]-7-(3-chloro-2-fluorobenzyl)-4-oxo-4H-quinolizine-3-carboxylic acid], the IC50 was in the range of 100 to 1000 nM.

As to `CC(C)(C)[C@@H](CO)c1cc(C(=O)O)c(=O)n2cc(Cc3cccc(Cl)c3F)ccc12` [Example 16, 7-(3-chloro-2-fluorobenzyl)-1-((R)-1-hydroxymethyl-2,2-dimethylpropyl)-4-oxo-4H-quinolizine-3-carboxylic acid], the IC50 was under 10 nM. Take `CN(C)Cc1cc(C(=O)O)c(=O)n2cc(Cc3cccc(Cl)c3F)ccc12` [Example 38, 7-(3-chloro-2-fluorobenzyl)-1-dimethylaminomethyl-4-oxo-4H-quinolizine-3-carboxylic acid]: the IC50 fell in the range of 100 to 1000 nM. Then `CN(Cc1cc(C(=O)O)c(=O)n2cc(Cc3cccc(Cl)c3F)ccc12)C(=O)OC(C)(C)C` [Example 41, 1-[(N-(tert-butoxycarbonyl)-N-methylamino)methyl]-7-(3-chloro-2-fluorobenzyl)-4-oxo-4H-quinolizine-3-carboxylic acid], with 10 to 100 nM; and `CO[C@@H](C)C(=O)NCc1cc(C(=O)O)c(=O)n2cc(Cc3cccc(Cl)c3F)ccc12` [Example 52, 7-(3-chloro-2-fluorobenzyl)-1-[((S)-2-methoxypropionylamino)methyl]-4-oxo-4H-quinolizine-3-carboxylic acid], with 10 to 100 nM. In the case of `O=C(O)c1cc(NCCO)c2ccc(Cc3cccc(Cl)c3F)cn2c1=O` [Example 27, 7-(3-chloro-2-fluorobenzyl)-1-(2-hydroxyethylamino)-4-oxo-4H-quinolizine-3-carboxylic acid] it was 100 to 1000 nM; in that of `O=C(O)c1cc(CCO)c2ccc(Cc3cccc(Cl)c3F)cn2c1=O` [Example 7, 7-(3-chloro-2-fluorobenzyl)-1-(2-hydroxyethyl)-4-oxo-4H-quinolizine-3-carboxylic acid], 10 to 100 nM; in that of `O=C(O)c1ccc2ccc(Cc3cccc(Cl)c3F)cn2c1=O` [Example 2, 7-(3-chloro-2-fluorobenzyl)-4-oxo-4H-quinolizine-3-carboxylic acid], 100 to 1000 nM. With `CCNC(=O)NCc1cc(C(=O)O)c(=O)n2cc(Cc3cccc(Cl)c3F)ccc12` [Example 48, 7-(3-chloro-2-fluorobenzyl)-1-[(3-ethylureido)methyl]-4-oxo-4H-quinolizine-3-carboxylic acid], the IC50 was 10 to 100 nM. Then `COCc1cc(C(=O)O)c(=O)n2cc(Cc3cccc(Cl)c3F)ccc12` [Example 19, 7-(3-chloro-2-fluorobenzyl)-1-methoxymethyl-4-oxo-4H-quinolizine-3-carboxylic acid], with 100 to 1000 nM.
